One assay relates to AsPC-1 (G12D). The experiment in a line: In vitro cell proliferation inhibition test (CellTiter-Glo Luminescent Cell Viability Assay). The format is cell-based. Particulars: AsPC-1 cell line, Pancreas, KRAS (p.G12D), cells and compounds co-incubated 72 hours. In outline:
(§1)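 Cells were seeded at 1000-5000/well and cultured overnight, then exposed to compound (top final 10 µM, ten 3-fold dilutions) for 72 h at 37°C, 5% CO2. Viability was read by CellTiter-Glo luminescence; IC50 was obtained from four-parameter fits of normalized signal.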

Another assay has as its system SW480 (G12V). The assay is described as above. The class given is cell-based. Particulars: SW480 cell line, Large intestine, Colon, KRAS (p.G12V), cells and compounds co-incubated 72 hours. In outline:
as §1

Broadly, the IC50 is the concentration needed to halve the response being measured. As for `CCn1c(-c2cc(C#CCN3CCN(C(C)=O)CC3)cnc2C(C)OC)c2c3cc(ccc31)-c1csc(n1)CC(NC(=O)C1C(C)C1C)C(=O)N1CCCC(N1)C(=O)OCC(C)(C)C2` [Example 41, (1r,2R,3S)-N-((6^3S,4S,Z)-1^2-(5-(3-(4-acetylpiperazin-1-yl)prop-1-yn-1-yl)-2-((S)-1-methoxyethyl)pyridin-3-yl)-1^1-ethyl-10,10-dimethyl-5,7-dioxo-6^1,6^2,6^3,6^4,6^5,6^6-hexahydro-1^1H-8-oxa-2(4,2)-thiazola-1(5,3)-indola-6(1,3)-pyridazinacycloundecaphane-4-yl)-2,3-dimethylcyclopropane-1-carboxamide], the IC50 was 0.56 nM in the assay on AsPC-1 (G12D) and 0.65 nM in the assay on SW480 (G12V).

`CCn1c(-c2cc(C#CCN3C[C@@H](C)O[C@@H](C)C3)cnc2[C@H](C)OC)c2c3cc(ccc31)-c1csc(n1)C[C@H](NC(=O)[C@H]1C[C@@H]1C)C(=O)N1CCC[C@H](N1)C(=O)OCC(C)(C)C2` (single isomer, unassigned) [Example 9]: the IC50 came out at 4.5 nM in the assay on AsPC-1 (G12D), 1360 nM with AsPC-1 (G12D) (listed as 9'), 31.6 nM in the assay on SW480 (G12V) and 963 nM in the assay on SW480 (G12V) (listed as 9').

With “(1S,2S)-N-((6^3S,4S,Z)-1^1-ethyl-1^2-(2-((S)-1-methoxyethyl)-5-((6-methyl-5,6,7,8-tetrahydropyrido[4,3-d]pyrimidin-2-yl)ethynyl)pyridin-3-yl)-10,10-dimethyl-5,7-dioxo-6^1,6^2,6^3,6^4,6^5,6^6-hexahydro-1^1H-8-oxa-2(4,2)-thiazola-1(5,3)-indola-6(1,3)-pyridazinacycloundecaphane-4-yl)-2-methylcyclopropane-1-carboxamide [Example 44]”, the values for the IC50 with AsPC-1 (G12D) and in the assay on SW480 (G12V) were 16.8 nM and 6.3 nM, respectively.

In the case of `CCn1c(-c2cc(C#Cc3cccc4c3ccn4C)cnc2[C@H](C)OC)c2c3cc(ccc31)-c1csc(n1)C[C@H](NC(=O)[C@H]1C[C@@H]1C)C(=O)N1CCC[C@H](N1)C(=O)OCC(C)(C)C2` [Example 56, (1S,2S)-N-((6^3S,4S,Z)-1^1-ethyl-1^2-(2-((S)-1-methoxyethyl)-5-((1-methyl-1H-indol-4-yl)ethynyl)pyridin-3-yl)-10,10-dimethyl-5,7-dioxo-6^1,6^2,6^3,6^4,6^5,6^6-hexahydro-1^1H-8-oxa-2(4,2)-thiazola-1(5,3)-indola-6(1,3)-pyridazinacycloundecaphane-4-yl)-2-methylcyclopropane-1-carboxamide], the figures for the IC50 in the assay with AsPC-1 (G12D) and with SW480 (G12V) were 291 nM and 487 nM, respectively.

As for `CCn1c(-c2cc(C#Cc3cccc4c3CN(C)C4)cnc2[C@H](C)OC)c2c3cc(ccc31)-c1csc(n1)C[C@H](NC(=O)[C@H]1C[C@@H]1C)C(=O)N1CCC[C@H](N1)C(=O)OCC(C)(C)C2` (single isomer, unassigned) [Example 30], the IC50 in the assay on AsPC-1 (G12D) worked out at 8.2 nM; with SW480 (G12V) it was 84.2 nM.

As for `CCn1c(-c2cc(C#CC3CCNCC3)cnc2[C@H](C)OC)c2c3cc(ccc31)-c1csc(n1)C[C@H](NC(=O)[C@H]1C[C@@H]1C)C(=O)N1CCC[C@H](N1)C(=O)OCC(C)(C)C2` [Example 48, (1S,2S)-N-((6^3S,4S,Z)-1^1-ethyl-1^2-(2-((S)-1-methoxyethyl)-5-(piperidin-4-ylethynyl)pyridin-3-yl)-10,10-dimethyl-5,7-dioxo-6^1,6^2,6^3,6^4,6^5,6^6-hexahydro-1^1H-8-oxa-2(4,2)-thiazola-1(5,3)-indola-6(1,3)-pyridazinacycloundecaphane-4-yl)-2-methylcyclopropane-1-carboxamide], the IC50 worked out at 5.4 nM in the assay with AsPC-1 (G12D) and 1.7 nM in the assay on SW480 (G12V).

As for `CO[C@@H](C)c1ncc(C#CCN2CCOCC2)cc1-c1c2c3cc(ccc3n1CC(F)(F)F)-c1csc(n1)C[C@H](NC(=O)[C@H]1C[C@@H]1C)C(=O)N1CCC[C@H](N1)C(=O)OCC(C)(C)C2` (single isomer, unassigned) [Example 3], the IC50 worked out at 3.5 nM in the assay with AsPC-1 (G12D), 292 nM in the assay with AsPC-1 (G12D) (listed as 3'), 2.2 nM in the assay with SW480 (G12V) and 2060 nM in the assay on SW480 (G12V) (listed as 3').

With `CCn1c(-c2cc(C#Cc3cncnc3N)cnc2C(C)OC)c2c3cc(ccc31)-c1csc(n1)CC(NC(=O)C1C(C)C1C)C(=O)N1CCCC(N1)C(=O)OCC(C)(C)C2` [Example 34, (1r,2R,3S)-N-((6^3S,4S,Z)-1^2-(5-((4-aminopyrimidin-5-yl)ethynyl)-2-((S)-1-methoxyethyl)pyridin-3-yl)-1^1-ethyl-10,10-dimethyl-5,7-dioxo-6^1,6^2,6^3,6^4,6^5,6^6-hexahydro-1^1H-8-oxa-2(4,2)-thiazola-1(5,3)-indola-6(1,3)-pyridazinacycloundecaphane-4-yl)-2,3-dimethylcyclopropane-1-carboxamide], the half-inhibitory concentration (IC50) in the assay with AsPC-1 (G12D) worked out at 1.3 nM; with SW480 (G12V) it was 0.75 nM.

For `CCn1c(-c2cc(C#CC3CCN(CCO)CC3)cnc2C(C)OC)c2c3cc(ccc31)-c1csc(n1)CC(NC(=O)C1CC1C)C(=O)N1CCCC(N1)C(=O)OCC(C)(C)C2` [Example 55, (1S,2S)-N-((6^3S,4S,Z)-1^1-ethyl-1^2-(5-((1-(2-hydroxyethyl)piperidin-4-yl)ethynyl)-2-((S)-1-methoxyethyl)pyridin-3-yl)-10,10-dimethyl-5,7-dioxo-6^1,6^2,6^3,6^4,6^5,6^6-hexahydro-1^1H-8-oxa-2(4,2)-thiazola-1(5,3)-indola-6(1,3)-pyridazinacycloundecaphane-4-yl)-2-methylcyclopropane-1-carboxamide], the IC50 with AsPC-1 (G12D) turned out to be 3 nM; in the assay on SW480 (G12V), 23.3 nM.

Consider `CCn1c(-c2cc(C#CCN3CCN(C)CC3)cnc2[C@H](C)OC)c2c3cc(ccc31)-c1csc(n1)C[C@H](NC(=O)[C@H]1[C@H](C)[C@@H]1C)C(=O)N1CCC[C@H](N1)C(=O)OCC(C)(C)C2` [Example 52, (1r,2R,3S)-N-((6^3S,4S,Z)-1^1-ethyl-1^2-(2-((S)-1-methoxyethyl)-5-(3-(4-methylpiperazin-1-yl)prop-1-yn-1-yl)pyridin-3-yl)-10,10-dimethyl-5,7-dioxo-6^1,6^2,6^3,6^4,6^5,6^6-hexahydro-1^1H-8-oxa-2(4,2)-thiazola-1(5,3)-indola-6(1,3)-pyridazinacycloundecaphane-4-yl)-2,3-dimethylcyclopropane-1-carboxamide], for which the IC50 came out at 0.24 nM with AsPC-1 (G12D) and 0.3 nM in the assay with SW480 (G12V).

In the case of `CCn1c(-c2cc(C#CCN3CCN(C)CC3)cnc2[C@H](C)OC)c2c3cc(ccc31)-c1csc(n1)C[C@H](NC(=O)[C@H]1C[C@@H]1C)C(=O)N1CCC[C@H](N1)C(=O)OCC(C)(C)C2` [Example 60, (1S,2S)-N-((6^3S,4S,Z)-1^1-ethyl-1^2-(2-((S)-1-methoxyethyl)-5-(3-(4-methylpiperazin-1-yl)prop-1-yn-1-yl)pyridin-3-yl)-10,10-dimethyl-5,7-dioxo-6^1,6^2,6^3,6^4,6^5,6^6-hexahydro-1^1H-8-oxa-2(4,2)-thiazola-1(5,3)-indola-6(1,3)-pyridazinacycloundecaphane-4-yl)-2-methylcyclopropane-1-carboxamide], the IC50 in the assay on AsPC-1 (G12D) worked out at 1.71 nM; in the assay with SW480 (G12V), 1.55 nM.

Regarding `CCn1c(-c2cc(C#CCN3CCS(=N)(=O)CC3)cnc2C(C)OC)c2c3cc(ccc31)-c1csc(n1)CC(NC(=O)C1CC1C)C(=O)N1CCCC(N1)C(=O)OCC(C)(C)C2` [Example 57, (1S,2S)-N-((6^3S,4S,Z)-1^1-ethyl-1^2-(5-(3-(1-imino-1-oxido-1l6-thiomorpholino)prop-1-yn-1-yl)-2-((S)-1-methoxyethyl)pyridin-3-yl)-10,10-dimethyl-5,7-dioxo-6^1,6^2,6^3,6^4,6^5,6^6-hexahydro-1^1H-8-oxa-2(4,2)-thiazola-1(5,3)-indola-6(1,3)-pyridazinacycloundecaphane-4-yl)-2-methylcyclopropane-1-carboxamide], the values for the IC50 with AsPC-1 (G12D) and with SW480 (G12V) were 1.9 nM and 2 nM, respectively.

With `CCn1c(-c2cc(C#CCN3CCC4(CC3)CN(C)C4)cnc2[C@H](C)OC)c2c3cc(ccc31)-c1csc(n1)C[C@H](NC(=O)[C@H]1C[C@@H]1C)C(=O)N1CCC[C@H](N1)C(=O)OCC(C)(C)C2` [Example 50, (1S,2S)-N-((6^3S,4S,Z)-1^1-ethyl-1^2-(2-((S)-1-methoxyethyl)-5-(3-(2-methyl-2,7-diazaspiro[3.5]nonan-7-yl)prop-1-yn-1-yl)pyridin-3-yl)-10,10-dimethyl-5,7-dioxo-6^1,6^2,6^3,6^4,6^5,6^6-hexahydro-1^1H-8-oxa-2(4,2)-thiazola-1(5,3)-indola-6(1,3)-pyridazinacycloundecaphane-4-yl)-2-methylcyclopropane-1-carboxamide], the IC50 in the assay with AsPC-1 (G12D) was 1.2 nM; in the assay on SW480 (G12V), 15.2 nM.

On to `CCn1c(-c2cc(C#C[C@@H]3CCN3C)cnc2[C@H](C)OC)c2c3cc(ccc31)-c1csc(n1)C[C@H](NC(=O)[C@H]1C[C@@H]1C)C(=O)N1CCC[C@H](N1)C(=O)OCC(C)(C)C2` [Example 13, (1S,2S)-N-((63S,4S,Z)-11-ethyl-12-(2-((S)-1-methoxyethyl)-5-(((S)-1-methylazetidin-2-yl)ethynyl)pyridin-3-yl)-10,10-dimethyl-5,7-dioxo-61,62,63,64,65,66-hexahydro-11H-8-oxa-2(4,2)-Thiazola-1(5,3)-indola-6(1,3)-pyridazinacyclonecaphane-4-yl)-2-methylcyclopropane-1-carboxamide], for which the IC50 in the assay on AsPC-1 (G12D) was 5.7 nM; in the assay on AsPC-1 (G12D) (listed as 13') it was 2820 nM; with SW480 (G12V) it was 7590 nM.

As for `CCn1c(-c2cc(C#CC3(C)CN(C)C3)cnc2C(C)OC)c2c3cc(ccc31)-c1csc(n1)CC(NC(=O)C1C(C)C1C)C(=O)N1CCCC(N1)C(=O)OCC(C)(C)C2` (single isomer, unassigned) [Example 19], the results for the IC50 in the assay with AsPC-1 (G12D) and in the assay on SW480 (G12V) were 2.2 nM and 1.5 nM, respectively.

The values above are taken from patent publication EP4582426A1, “PAN-KRAS INHIBITOR COMPOUND” (Adlai Nortye Biopharma Co., Ltd., priority 2022, dated 2024).
